The supplement of paper PMC10883282

Legend:
Test in all cases: relative viability vs DMSO control (72 h) (fraction); higher = more viable cells
[1] = system: G401
Outline: (§1)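 Sarcoma cell lines in 384-well plates, seeded to reach 80–90% confluence, were given compound after 24 h and kept 72 h at 37 °C, 5% CO2, with 0.1% DMSO vehicle and a 5 µM positive control. Relative viability came from ATPLite as percent growth, averaged over up to triplicate wells. On the rescaled values, 1 equals full and 0 equals none.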

[2] = system: HS729
Outline: as §1

[3] = system: HT1080
Outline: as §1

[4] = system: KHOS-240S
Outline: as §1

[5] = system: KHOS-NP
Outline: as §1

[6] = system: RD-ES
Outline: as §1

[7] = system: RD
Outline: as §1

[8] = system: SK-LMS-1
Outline: as §1

[9] = system: SW1353
Outline: as §1

[10] = system: SW684
Outline: as §1

[11] = system: SW872
Outline: as §1

[12] = system: SYO-1
Outline: as §1

Cc1[nH]c(/C=C2\C(=O)Nc3ccc(F)cc32)c(C)c1C(=O)NCCN1CCCC1 [Toceranib]
Conditions	relative viability
[1], 68 pM	0.991
[1], 0.000203 µM	0.978
[1], 0.0006 µM	0.979
[1], 0.0018 µM	0.983
[1], 0.0055 µM	0.974
[1], 0.0165 µM	0.918
[1], 0.0494 µM	0.941
[1], 0.1481 µM	0.924
[1], 0.444 µM	0.938
[1], 1.333 µM	0.912
[1], 4 µM	0.787
[2], 68 pM	0.982
[2], 0.000203 µM	0.926
[2], 0.0006 µM	0.901
[2], 0.0018 µM	0.859
[2], 0.0055 µM	0.84
[2], 0.0165 µM	0.778
[2], 0.0494 µM	0.765
[2], 0.1481 µM	0.729
[2], 0.444 µM	0.715
[2], 1.333 µM	0.59
[2], 4 µM	0.414
[3], 68 pM	1.09
[3], 0.000203 µM	1.06
[3], 0.0006 µM	1.116
[3], 0.0018 µM	1.07
[3], 0.0055 µM	1.076
[3], 0.0165 µM	1.04
[3], 0.0494 µM	1.09
[3], 0.1481 µM	1
[3], 0.444 µM	1.1
[3], 1.333 µM	1.14
[3], 4 µM	0.868
[4], 68 pM	1.08
[4], 0.000203 µM	1.105
[4], 0.0006 µM	1.08
[4], 0.0018 µM	1.11
[4], 0.0055 µM	1.03
[4], 0.0165 µM	0.989
[4], 0.0494 µM	0.974
[4], 0.1481 µM	0.941
[4], 0.444 µM	0.865
[4], 1.333 µM	0.705
[4], 4 µM	0.491
[5], 68 pM	1.09
[5], 0.000203 µM	1.106
[5], 0.0006 µM	1.0967
[5], 0.0018 µM	1.08
[5], 0.0055 µM	1.07
[5], 0.0165 µM	1.07
[5], 0.0494 µM	1.03
[5], 0.1481 µM	1.02
[5], 0.444 µM	1.02
[5], 1.333 µM	1
[5], 4 µM	0.775
[6], 68 pM	0.976
[6], 0.000203 µM	0.948
[6], 0.0006 µM	0.964
[6], 0.0018 µM	0.943
[6], 0.0055 µM	0.9493
[6], 0.0165 µM	0.937
[6], 0.0494 µM	0.924
[6], 0.1481 µM	0.902
[6], 0.444 µM	0.821
[6], 1.333 µM	0.615
[6], 4 µM	0.176
[7], 68 pM	1.06
[7], 0.000203 µM	1.09
[7], 0.0006 µM	1.14
[7], 0.0018 µM	1.07
[7], 0.0055 µM	1.08
[7], 0.0165 µM	1.08
[7], 0.0494 µM	1.11
[7], 0.1481 µM	1.08
[7], 0.444 µM	1.08
[7], 1.333 µM	1.05
[7], 4 µM	0.786
[8], 68 pM	0.939
[8], 0.000203 µM	0.944
[8], 0.0006 µM	0.972
[8], 0.0018 µM	0.968
[8], 0.0055 µM	0.941
[8], 0.0165 µM	0.946
[8], 0.0494 µM	0.906
[8], 0.1481 µM	0.921
[8], 0.444 µM	0.893
[8], 1.333 µM	0.81
[8], 4 µM	0.717
[9], 68 pM	1.07
[9], 0.000203 µM	1.02
[9], 0.0006 µM	1.02
[9], 0.0018 µM	0.987
[9], 0.0055 µM	0.994
[9], 0.0165 µM	0.973
[9], 0.0494 µM	0.964
[9], 0.1481 µM	0.928
[9], 0.444 µM	0.934
[9], 1.333 µM	0.96
[9], 4 µM	0.893
[10], 68 pM	1.1
[10], 0.000203 µM	1.178
[10], 0.0006 µM	1.13
[10], 0.0018 µM	1.13
[10], 0.0055 µM	1.14
[10], 0.0165 µM	1.1
[10], 0.0494 µM	1.15
[10], 0.1481 µM	1.14
[10], 0.444 µM	1.12
[10], 1.333 µM	0.956
[10], 4 µM	0.755
[11], 68 pM	1.05
[11], 0.000203 µM	1.05
[11], 0.0006 µM	1.03
[11], 0.0018 µM	0.982
[11], 0.0055 µM	0.954
[11], 0.0165 µM	0.971
[11], 0.0494 µM	0.944
[11], 0.1481 µM	0.939
[11], 0.444 µM	0.886
[11], 1.333 µM	0.65
[11], 4 µM	0.521
[12], 68 pM	0.931
[12], 0.000203 µM	0.887
[12], 0.0006 µM	0.835
[12], 0.0018 µM	0.806
[12], 0.0055 µM	0.721
[12], 0.0165 µM	0.64
[12], 0.0494 µM	0.587
[12], 0.1481 µM	0.603
[12], 0.444 µM	0.576
[12], 1.333 µM	0.482
[12], 4 µM	0.357
